The results in this text go back to patent US12383497B2, “Ready-to-use phenylephrine formulations and products” (INFORLIFE SA, priority 2023, dated 2025).

Molecules are shown by their SMILES. Where a name gives a salt, the structure may show the parent alone.

The nature of the data set: Effect of autoclaving (terminal sterilization) on the product. It counts as physicochemical. The protocol:
Batches of the phenylephrine composition of the present disclosure formulated as in Table 1 were manufactured for the study of the effect of autoclaving on product behavior by autoclaving at a target temperature T=121° C.±1° C. and time at different FOs according to USP <1222>, which is incorporated fully herein by reference.
The table below show the Critical Quality Attributes of the drug product. The objective of this study was to evaluate the quality of the proposed manufacturing process to determine whether the manufacturing process will endure the desired final product study.
The table below show the results of the autoclaving study using several batches of the phenylephrine hydrochloride product formulation of the disclosure, containing 0.08 mg/ml of phenylephrine HCL.

Take `CNC[C@H](O)c1cccc(O)c1` [phenylephrine, benzene methanol, 3-hydroxy-α [(methyl amino)methyl]-hydrochloride (R)]: the “effect of terminal sterilization by autoclaving” value was “caused degradation”.
